7 compounds from US20220235006A1, “PYRIDINE DERIVATIVES AS TMEM16A MODULATORS FOR USE IN THE TREATMENT OF RESPIRATORY CONDITIONS” (TMEM16A LIMITED, priority 2019, published 2022) can be followed below.

Series [1] addresses T1, human TMEM16A (TMEM16Aabc variant) (Homo sapiens, UniProt Q5XXA6, DEL476-501).
T1 sequence (Q5XXA6 with tags, fused parts or gaps isoform Q5XXA6-5 DEL539-564): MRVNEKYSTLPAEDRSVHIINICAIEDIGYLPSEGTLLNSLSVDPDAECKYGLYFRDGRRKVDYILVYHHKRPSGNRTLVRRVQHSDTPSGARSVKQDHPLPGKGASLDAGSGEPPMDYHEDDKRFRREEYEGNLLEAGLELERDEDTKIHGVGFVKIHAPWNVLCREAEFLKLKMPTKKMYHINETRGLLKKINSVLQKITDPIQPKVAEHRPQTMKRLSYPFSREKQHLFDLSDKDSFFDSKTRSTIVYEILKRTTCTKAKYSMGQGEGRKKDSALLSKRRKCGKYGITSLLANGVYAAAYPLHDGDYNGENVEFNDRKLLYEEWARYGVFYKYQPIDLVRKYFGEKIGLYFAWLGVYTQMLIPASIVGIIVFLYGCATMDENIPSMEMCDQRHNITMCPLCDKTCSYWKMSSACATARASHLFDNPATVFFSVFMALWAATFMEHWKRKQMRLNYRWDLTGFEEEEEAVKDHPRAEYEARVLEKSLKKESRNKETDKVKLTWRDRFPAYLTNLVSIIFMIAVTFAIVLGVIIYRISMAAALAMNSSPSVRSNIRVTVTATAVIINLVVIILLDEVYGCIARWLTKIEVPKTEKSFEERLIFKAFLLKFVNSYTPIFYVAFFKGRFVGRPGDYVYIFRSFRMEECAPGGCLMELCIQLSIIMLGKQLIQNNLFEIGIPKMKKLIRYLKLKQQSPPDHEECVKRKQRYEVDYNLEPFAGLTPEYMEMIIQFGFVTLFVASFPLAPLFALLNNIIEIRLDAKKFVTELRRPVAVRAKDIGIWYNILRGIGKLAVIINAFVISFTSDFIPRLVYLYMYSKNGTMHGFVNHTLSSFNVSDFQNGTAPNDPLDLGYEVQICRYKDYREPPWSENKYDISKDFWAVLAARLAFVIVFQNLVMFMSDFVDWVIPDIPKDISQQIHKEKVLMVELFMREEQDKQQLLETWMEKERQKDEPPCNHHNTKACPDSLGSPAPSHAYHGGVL
The experiment in a line: Automated whole-cell patch clamp (Qpatch) TMEM16A potentiator assay in recombinant FRT cells. It counts as cell-based. As to conditions: for activation at 3.33 µM: percentage increase of baseline TMEM16A current, minimum n = 2, read-out: % Potentiation @ 3.33 uM Avg; for pEC50: minimum n = 2. The essentials: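 FRT cells stably expressing human TMEM16Aabc, whole-cell automated patch clamp with intracellular Ca2+ buffered for ~20% maximal current (EC20). Held at −70 mV, step to +70 mV/ramp at 0.05 Hz, cumulative compound additions of 5 min each. Peak +70 mV current increase expressed as % potentiation of baseline.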
On the technique in general: In patch-clamp work, channel activity is measured electrically.

The nature of series [2]: Kinetic solubility determination (high throughput). It counts as physicochemical. As to conditions: kinetic from dmso stock, sterile water, 5% DMSO, room temperature. How it is done:
Test compounds (10 μL; 20 mM DMSO solution) were added to sterile water (190 μL) in triplicate and shaken at 300 rpm at room temperature. After 90 min. the test compounds were filtered by centrifuge (5 min. at 3000 rpm) to obtain the aqueous filtrate. Acetonitrile (20 μL) was dispensed into clean 96-well UV/VIS analysis plate and aqueous filtrate (80 μL) added and the plate analysed for test compound concentration using a Molecular Devices SPECTRAmax® plus microplate reader at the following wavelengths: (280, 300, 320, 340, 360, 800 nm). […] The diluted filtrate (80 μL) was then added to acetonitrile (20 μL) and the plate analysed. as previously.

Series [3] is described as follows: Log D (pH7.4 shake flask). It counts as physicochemical. As to conditions: pH 7.4; 1-octanol/phosphate buffer shake flask; read-out: mLogD (pH 7.4). On the procedure:
Phosphate buffer (1 M) was diluted to 20 mM with deionised water and adjusted to pH 7.4 with phosphoric acid or sodium hydroxide. 1-octanol and phosphate buffer (20 mM) were saturated overnight by tumbling. The two phases were separated using a separation funnel. 5 μL of 5 mM compound cassette was added to 495 μL of octanol-saturated buffer and 495 μL buffer saturated octanol in a 96-well plate (top concentration 50 μM). Plate was shaken for 1 h and centrifuged at 25° C. for 5 min. 200 μL of each phase was transferred to a separate plate. The octanol layer was sampled first to avoid cross contamination. 5 μL of the solutions were transferred to 495 μL of quench solution* (max concentration 0.5 μM). In addition, 40 μL of buffer solution was added to 360 μL of quench solvent (max concentration 5 μM). Samples were analysed by LC-MS/MS. Benchmarking against a calibration curve for each compound and with reference to the control compounds sulpride, diclofenac, chlorpromazine and tamoxifen. *Quench solution was a 1:3:1 mixture (v/v/v) of Acetonitrile containing 0.1% formic acid and imipramine/labetalol, 200 nM:Acetonitrile:Water.

pEC50: −log10 of the molar value. ≈ marks a conversion by molar mass, not a printed value. Bounds are passed on as bounds.

On to `CC(C)(C)NC(=O)c1cc(NC(=O)Cc2cc(O)c(C3(C)CC3)cc2F)ccn1` [Example 8, N-tert-Butyl-4-[[2-[2-fluoro-5-hydroxy-4-(1-methylcyclopropyl)phenyl]acetyl]amino]pyridine-2-carboxamide], for which, in series [1], the activation at 3.33 µM was 240% and the pEC50 is 7.34. In addition, the solubility (kinetic) at 90 min in series [2] worked out at 37 µg/mL (≈ 92.6 µM). In addition, in series [3], the logD was over 4.
Take `N#CC1(NC(=O)c2cc(NC(=O)Cc3cc(O)c(C4(C(F)(F)F)CC4)cc3F)ccn2)CC1` [Example 9, N-(1-Cyanocyclopropyl)-4-[[2-[2-fluoro-5-hydroxy-4-[1-(trifluoromethyl)cyclopropyl]phenyl]acetyl]amino]pyridine-2-carboxamide]: in series [1], the activation at 3.33 µM came out at 378% and the pEC50 was 7.06. In series [2], the kinetic solubility at 90 min came out at 72 µg/mL (≈ 156 µM). Also, the logD in series [3] stood at 3.5.
For `CC(C)(C)c1cc(Cl)c(CC(=O)Nc2ccnc(C(=O)NC3(C(F)(F)F)CC3)c2)cc1O` [Example 10.1, 4-[[2-(4-tert-Butyl-2-chloro-5-hydroxy-phenyl)acetyl]amino]-N-[1-(trifluoromethyl)cyclopropyl]pyridine-2-carboxamide] the same measures were 250%, 7.24, 256 µg/mL (≈ 545 µM) and 3.7.
Regarding `CC(C)(C)c1cc(Cl)c(CC(=O)Nc2ccnc(C(=O)NC3(C#N)CC3)c2)cc1O` [Example 10.2, 4-[[2-(4-tert-Butyl-2-chloro-5-hydroxy-phenyl)acetyl]amino]-N-(1-cyanocyclopropyl)pyridine-2-carboxamide], in series [1], the activation at 3.33 µM stood at 252% and the pEC50 was 7.28. The compound also returned a kinetic solubility at 90 min in series [2] of 11 µg/mL (≈ 25.8 µM). Besides, in series [3], the logD was 3.7.
In the case of `CC(C)(CO)c1cc(F)c(CC(=O)Nc2ccnc(C(=O)N[C@H]3CCC[C@@H]3O)c2)cc1O` [Example 12.2, 4-[[2-[2-Fluoro-5-hydroxy-4-(2-hydroxy-1,1-dimethyl-ethyl)phenyl]acetyl]amino]-N-[(1S,2S)-2-hydroxycyclopentyl]pyridine-2-carboxamide], in series [1], the activation at 3.33 µM was determined as 142% and the pEC50 is 6.62. In addition, the solubility (kinetic) at 90 min in series [2] is 296 µg/mL (≈ 664 µM). Further, in series [3], the logD turned out to be 2.6.
`CC1(NC(=O)c2cc(NC(=O)Cc3cc(O)c(C(C)(C)CO)cc3Cl)ccn2)CC(F)(F)C1` [Example 15.2, 4-[[2-[2-Chloro-5-hydroxy-4-(2-hydroxy-1,1-dimethyl-ethyl)phenyl]acetyl]amino]-N-(3,3-difluoro-1-methyl-cyclobutyl)pyridine-2-carboxamide]: in series [1], the activation at 3.33 µM turned out to be 195% and the pEC50 is 7.44. This compound registered a kinetic solubility at 90 min in series [2] of 44 µg/mL (≈ 91.3 µM). The logD in series [3] is over 4.2.
Turning to `CC(C)(CO)c1cc(F)c(CC(=O)Nc2ccnc(C(=O)NC3(C(F)(F)F)CC3)c2)c(F)c1O` [Example 16.4, 4-[[2-[2,6-Difluoro-3-hydroxy-4-(2-hydroxy-1,1-dimethyl-ethyl)phenyl]acetyl]amino]-N-[1-(trifluoromethyl)cyclopropyl]pyridine-2-carboxamide], in series [1], the activation at 3.33 µM stood at 280% and the pEC50 was 7.74. This compound yielded a kinetic solubility at 90 min in series [2] of 75 µg/mL (≈ 154 µM). In addition, the logD in series [3] was 3.6.

What is called pEC50 is the negative decadic logarithm of the EC50, by convention in mol/L. Broadly, the kinetic solubility is solubility judged after dilution from a stock solution rather than from solid.
